How the values were obtained:
Type in all cases: in vivo
[1] = system: mice (tail flick, heat beam pain reaction); assay: Tail flick Test in Mice; details: sc, 0.5 h; mouse, s.c.; 30 minutes after administration; >75% increase of reaction time in 50% of animals
Method: (§1) This analgesic activity has been evaluated in two pharmacological standard methods, the tail flick test in mice and the arthritis pain test in rats.
3. Tail flick Test in Mice.
This test is carried out according to the method described by D'Amour and Smith (1941), yet fed male and female mice having a body weight of 16 to 25 g are used instead of rats. Thirty minutes prior to treatment with the test compound, each mouse is placed separately in a cylindrical container in such a manner that it cannot turn itself or move forward. Its tail is positioned in a narrow groove projecting out of the container. A certain point of the tail of each animal (about 35 mm beyond the root of the tail) is subjected to the heat beam of a lamp of known strength and temperature which is positioned directly under the tail. The number of seconds which pass before the mouse moves its tail out of the light beam is determined twice, once 30 minutes and once 15 minutes prior to subcutaneous administration of the test compound (10 mg/kg). Mice which show a reaction time differing more than 25% are eliminated from the test. The reaction time is again determined 15 minutes and 30 minutes after the treatment and an increase of the reaction period of more than 75% of the average values prior to treatment in the same animal is considered as showing an analgesic effect. The ED50 (95% reliability) of each test compound 30 minutes after administration is evaluated according to the method of Litchfield and Wilcoxon (1949). The dose which increases the reaction time as compared to the reaction time prior to treatment for more than 75% in 50% of the animals is considered as ED50.

[2] = system: rats (secondary arthritis pain, mycobacterium smegmae); assay: Arthritis Pain Test in Rats; details: po, rat, p.o., 3 hours after administration, protection in 50% of treated animals
Method: as §1
2. Arthritis Pain Test in Rats.
Male rats having a weight of from 160 to 180 g are anesthetized by small i.p. injection of 20 mg/kg of sodium pentobarbital and 0.1 ml of a suspension of mycobacterium smegmae (SI 043) in liquid paraffin (0.6 mg mycobacterium/0.1 ml of oil) are injected intracutaneously into the left rear paw. Fourteen days later when a marked secondary arthritis has developed in particular in the right rear paw, the effect of the test compound is evaluated. A control-reading is taken 30 minutes prior to administration of the test compound by bending the foot joint of the right rear paw three times and counting the number of squeakings. […] Three hours after oral administration of the test compound the bending of the joint is repeated. Animals which squeak only once or not at all are considered to be protected against pain. Between about 9 and 20 rats are used per dose and the ED50 (95% reliability) is determined according to the method of Litchfield and Wilcoxon (1949). The dose which provides protection in 50% of the treated animals is taken as ED50.

[3] = system: male mice; assay: Determination of the Minimal Toxic Dose (oral, mice); details: mouse, p.o.; observed 3 h, symptoms and deaths over 24 h
Method: 1. Determination of the Minimal Toxic Dose.
Maximum doses of 300 mg/kg of the test compound are administered orally to three male mice having a weight of 20-25 g and toxicity symptoms are carefully observed for a period of three hours. Furthermore, over a period of 24 hours from the administration all symptoms and deaths are registered. Side-symptoms are also observed and registered. Depending on their water solubility, the test compounds are administered either in form of aqueous solutions or in form of suspensions without the use of solvents. In order to maintain a stable suspension of the test compound, one drop of Tween-80 can be added and the mixture can be mechanically homogenized. In the case of compounds where deaths or toxic symptoms have been observed, additional mice are treated with decreasing doses until a dose is reached at which no toxic symptoms occur. The lowest dose which causes toxic symptoms is considered the minimal toxic dose.

| SMILES | ED50 [1] [mg/kg] | ED50 [2] [mg/kg] | MDL (minimal toxic dose) [3] [mg/kg] |
| --- | --- | --- | --- |
| CN1c2ccccc2C(c2ccccc2)=NCC1CNC(=O)c1cccs1 (stereo not drawn) [Compound 1, 1-methyl-2-[(thiophene-2-carbonyl)-aminomethyl]-5-phenyl-1H-2,3-dihydro-1,4-benzodiazepine] | 2.8 | 13 | > 300 |
| CN1c2ccccc2C(c2ccccc2)=NCC1CNC(=O)c1ccco1 (stereo not drawn) [Compound 2, 1-methyl-2-[(furane-2-carbonyl)-aminomethyl]-5-phenyl-1H-2,3-dihydro-1,4-benzodiazepine] | 2.8 | 32 | > 300 |
| COc1ccc2c(c1)N(C)C(CNC(=O)c1cccs1)CN=C2c1ccccc1 (stereo not drawn) [Compound 3, 8-methoxy-1-methyl-2-[(thiophene-2-carbonyl)-aminomethyl]-5-phenyl-1H-2,3-dihydro-1,4-benzodiazepine] | 5.3 | 20 | > 200 |
| COc1ccc2c(c1)N(C)C(CNC(=O)c1ccco1)CN=C2c1ccccc1 (stereo not drawn) [Compound 4, 8-methoxy-1-methyl-2-[(furane-2-carbonyl)-aminomethyl]-5-phenyl-1H-2,3-dihydro-1,4-benzodiazepine] | 7 | 21 | > 200 |
| COc1ccc2c(c1)N(C)C(CNC(=O)c1ccsc1)CN=C2c1ccccc1 (stereo not drawn) [Compound 5, 8-methoxy-1-methyl-2-[(thiophene-3-carbonyl)-aminomethyl]-5-phenyl-1H-2,3-dihydro-1,4-benzodiazepine] | 2.4 | 15 | > 200 |
| COc1ccc2c(c1)N(C)C(CNC(=O)c1ccoc1)CN=C2c1ccccc1 (stereo not drawn) [Compound 6, 8-methoxy-1-methyl-2-[(furane-3-carbonyl)-aminomethyl]-5-phenyl-1H-2,3-dihydro-1,4-benzodiazepine] | 2.8 | 9 | > 50 |
| CN1c2ccccc2C(c2ccccc2)=NCC1CNC(=O)c1ccsc1 (stereo not drawn) [Compound 7, 1-methyl-2-[(thiophene-3-carbonyl)-aminomethyl]-5-phenyl-1H-2,3-dihydro-1,4-benzodiazepine] | 0.22 | 19 | > 200 |
| Cc1cc2c(cc1C)N(C)C(CNC(=O)c1ccoc1)CN=C2c1ccccc1 (stereo not drawn) [Compound 8, 1,7,8-trimethyl-2-[(furane-3-carbonyl)-aminomethyl]-5-phenyl-1H-2,3-dihydro-1,4-benzodiazepine] | 8 | 14 | > 200 |
| COc1ccc2c(c1)N(C)C(CNC(=O)c1ccc(C)s1)CN=C2c1ccccc1 (stereo not drawn) [Compound 9, 8-methoxy-1-methyl-2-[(5-methylthiophene-2-carbonyl)-aminomethyl]-5-phenyl-1H-2,3-dihydro-1,4-benzodiazepine] | 5.6 | 14 | > 200 |
| Cc1ccc2c(c1)C(c1ccccc1)=NCC(CNC(=O)c1ccsc1)N2C (stereo not drawn) [Compound 10, 1,7-dimethyl-2-[(thiophene-3-carbonyl)-aminomethyl]-5-phenyl-1H-2,3-dihydro-1,4-benzodiazepine] | 3.2 | 32 | > 300 |
| Cc1ccc2c(c1)C(c1ccccc1)=NCC(CNC(=O)c1ccoc1)N2C (stereo not drawn) [Compound 11, 1,7-dimethyl-2-[(furane-3-carbonyl)-aminomethyl]-5-phenyl-1H-2,3-dihydro-1,4-benzodiazepine] | 1.2 | 30 | > 300 |
| Cc1ccc(C(=O)NCC2CN=C(c3ccccc3)c3ccccc3N2C)s1 (stereo not drawn) [Compound 12, 1-methyl-2-[(5-methylthiophene-2-carbonyl)-aminomethyl]-5-phenyl-1H-2,3-dihydro-1,4-benzodiazepine] | 2.8 | 10 | > 300 |
| CCOc1ccc2c(c1)N(C)C(CNC(=O)c1ccoc1)CN=C2c1ccccc1 (stereo not drawn) [Compound 13, 8-ethoxy-1-methyl-2-[(furane-3-carbonyl)-aminomethyl]-5-phenyl-1H-2,3-dihydro-1,4-benzodiazepine] | 6 | 15 | > 200 |
| COc1cccc(C2=NCC(CNC(=O)c3ccco3)N(C)c3ccccc32)c1 (stereo not drawn) [Compound 14, 1-methyl-2-[(furane-2-carbonyl)-aminomethyl]-5-(3-methoxyphenyl)-1H-2,3-dihydro-1,4-benzodiazepine] | 1.6 | 32 | > 300 |
| COc1ccc2c(c1)C(c1ccccc1)=NCC(CNC(=O)c1ccoc1)N2C (stereo not drawn) [Compound 15, 7-methoxy-1-methyl-2-[(furane-3-carbonyl)-aminomethyl]-5-phenyl-1H-2,3-dihydro-1,4-benzodiazepine] | 8.5 | 32 | > 300 |
| COc1cccc(C2=NCC(CNC(=O)c3ccsc3)N(C)c3ccccc32)c1 (stereo not drawn) [Compound 16, 1-methyl-2-[(thiophene-3-carbonyl)-aminomethyl]-5-(3-methoxyphenyl)-1H-2,3-dihydro-1,4-benzodiazepine] | 0.5 | 32 | > 300 |
| CCN1c2ccccc2C(c2ccccc2)=NCC1CNC(=O)c1ccoc1 (stereo not drawn) [Compound 17, 1-ethyl-2-[(furane-3-carbonyl)-aminomethyl]-5-phenyl-1H-2,3-dihydro-1,4-benzodiazepine] | 2.6 | 22 | > 200 |
| CN1c2ccccc2C(c2ccccc2F)=NCC1CNC(=O)c1ccco1 (stereo not drawn) [Compound 18, 1-methyl-2-[(furane-2-carbonyl)-aminomethyl]-5-(2-fluorophenyl)-1H-2,3-dihydro-1,4-benzodiazepine] | 4.1 | 18 | > 300 |
| CN1c2ccccc2C(c2ccccc2F)=NCC1CNC(=O)c1ccoc1 (stereo not drawn) [Compound 19, 1-methyl-2-[(furane-3-carbonyl)-aminomethyl]-5-(2-fluorophenyl)-1H-2,3-dihydro-1,4-benzodiazepine] | 0.56 | 13 | > 300 |
| CN1c2ccccc2C(c2ccccc2F)=NCC1CNC(=O)c1ccsc1 (stereo not drawn) [Compound 20, 1-methyl-2-[(thiophene-3-carbonyl)-aminomethyl]-5-(2-fluorophenyl)-1H-2,3-dihydro-1,4-benzodiazepine] | 1.1 | 18 | > 300 |
| CN1c2ccccc2C(c2ccccc2F)=NCC1CNC(=O)c1cccs1 (stereo not drawn) [Compound 21, 1-methyl-2-[(thiophene-2-carbonyl)-aminomethyl]-5-(2-fluorophenyl)-1H-2,3-dihydro-1,4-benzodiazepine] | 6.2 | 13 | > 300 |
